Reference: article doi:10.1101/2020.04.13.040287v1 (biorxiv, 2020)
Where two headings read alike, the source gives them in different places.

Columns and labels:
in vitro [1] = details: dog
in vitro [2] = details: rat, plasma
in vitro [3] = details: human
DEN2 [4] = assay: microbe, parasite or virus in culture; details: Dengue virus, HEK-293T, read-out: 293T DEN2 assay (EC50)
DEN2 [5] = assay: microbe, parasite or virus in culture; details: Dengue virus, K562, read-out: K562 DEN2 assay (EC50)
DEN2 [6] = assay: microbe, parasite or virus in culture; details: Dengue virus, THP-1, read-out: THP-1 DEN2 assay (EC50)
in vitro [7] = details: human, intestinal s9
in vitro [8] = details: dog, intestinal s9
in vitro [9] = details: human, plasma
in vitro [10] = details: dog, plasma
[11] = liver s9, Liver S9 T1/2 (min) dog
[12] = liver s9, Liver S9 T1/2 (min) human

| half-life (in vitro [1]; [11]) | half-life (in vitro [2]; Plasma T1/2 (min) rat) | half-life (in vitro [3]; [12]) | Compound | also measured |
| --- | --- | --- | --- | --- |
| 1.52 h | < 0.0833 h | 0.967 h | CCOc1nc(N)nc2c1ncn2C1OC2COP(=O)(NCC(=O)OC(C)C)OC2C1(C)F (centres unmarked) [compound 16, 16] | – |
| – | – | > 2 h | CCOc1nc(N)nc2c1ncn2[C@@H]1O[C@@H]2COP(=O)(OC(C)C)O[C@H]2[C@@]1(C)F (some centres unmarked) [compound 4, PSI-352938] | – |
| 1.02 h | 1.1 h | 1.37 h | CCOC(=O)C(NP1(=O)OCC2OC(n3cnc4c(OCC)nc(N)nc43)C(C)(F)C2O1)C(C)C (centres unmarked) [compound 20, 20] | – |

More lines, now with the values behind:

| Compound | half-life (in vitro [1]; [11]) | half-life (in vitro [2]; Plasma T1/2 (min) rat) | half-life (in vitro [3]; [12]) | also measured |
| --- | --- | --- | --- | --- |
| CCOC(=O)C(C)NP1(=O)OCC2OC(n3cnc4c(OCC)nc(N)nc43)C(C)(F)C2O1 (centres unmarked) [compound 17, 17] | – | – | – | EC50 (DEN2 [4]): 3400 nM; EC50 (DEN2 [5]): 2790 ± 220 nM; EC50 (DEN2 [6]): 460 ± 200 nM |
| CCOc1nc(N)nc2c1ncn2C1OC2COP(=O)(NC(C)C(=O)OC(C)C)OC2C1(C)F (centres unmarked) [compound 12, 12] | 0.933 h | < 0.0833 h | – | – |
| COc1nc(N)nc2c1ncn2[C@@H]1O[C@H](COP(=O)(N[C@@H](C)C(=O)OC(C)C)Oc2ccccc2)[C@@H](O)[C@@]1(C)F (some centres unmarked) [compound 5, PSI-353661] | – | – | – | half-life (in vitro [1]; liver s9): 0.85 h; half-life (in vitro [2]): < 0.0833 h; half-life (in vitro [3]; liver s9): 0.3 h; half-life (in vitro [7]): > 2 h; half-life (in vitro [8]): 1.2 h |
| COC(=O)C(C)NP1(=O)OCC2OC(n3cnc4c(OC(C)C)nc(N)nc43)C(C)(F)C2O1 (centres unmarked) [compound 19, 19] | – | < 0.0833 h | – | half-life (in vitro [9]): 1.88 h; half-life (in vitro [10]): > 2 h |
